Assays:
Format in all cases: binding
[1] = test system: rabbit anti-thyroxine (T4) serum; assay: assay of thyroxine by mixed agglutination; details: maximum = Ag-latex alone
Description: This Example illustrates the assay of thyroxine. […] After incubation at 0° for 1 hour, 250 μl of 25% ethanolamine in PBS was added, and the incubation prolonged for 30 minutes. The latex was then washed twice by centrifugation and resuspension in fresh PBS (1 ml each time), and then dialysed for 16 hours at 4° against 1 l PBS. […] The method of this latex preparation was exactly the same as for the assay of digoxin (Example 1) except that the Ab was from rabbit anti-thyroxine (T4) serum. […] The maximum value in this case was for the Ag-latex alone, all the above values being found in the presence of Ag-latex as well.

sheep anti-digoxin serum [2] = assay: Example 3: digoxin mixed agglutination with equal-sized or different-sized latex
Description: (§1) Latex particles (0.09μ diameter, polystyrene, Dow Chemical Co.) as a 10% by weight suspension as supplied) was diluted 20-fold in dilute glycine-buffered saline (dGBS-20 mM glycine, 34 mM NaCl, pH 9) containing 0.2 mg/ml of the Rivanol-soluble fraction (prepared by the method of Stastny and Horejsi, Clin. Chim. Acta (1961), 6, 782) of sheep anti-digoxin serum, and incubated at room temperature for 30 minutes. 1/10th volume of 10 mg bovine serum albumin (bSA) per ml. dGBS was then added (to ensure that the latex was completely coated with protein), and after a further 30 minutes incubation, the coated latex was washed twice by centrifugation and resuspended in dGBS. Finally, the coated latex was resuspended as a 0.5% suspension in GBS (0.1 M glycine, 0.17 M NaCl, pH 9) containing 1 mg bSA/ml.
(§2) The same procedure was followed as in (a) except that the latex used was of 1.1μ diameter and incubation was performed at an Ag-conjugate concentration of 4μg/ml, followed by the addition of 1/10 volume of 10 mg/ml transferrin. The Ag-conjugate was prepared by the oxidative coupling of digoxin and ethylene glycol followed by reductive coupling of this complex to the protein. 50 mg digoxin dissolved in 2 ml absolute alcohol was incubated for 25 minutes with 2 ml 0.1 M NalO4, then 60 μl of ethylene glycol was added for a further 5 minutes incubation. This reaction mixture was then added to a solution of 60 mg human transferrin in 2 ml water, brought to pH 9.5 by addition of 5% Na2 CO3, and incubated for 45 minutes. 30 mg NaBH4 freshly dissolved in 2 ml water was added and incubation was continued for 3 hours. At the end of this time, the pH of the reaction mixture was reduced to 6.5 by addition of 1 M HCOOH to destroy any unreacted NaBH4, and after a further hour of incubation, 1 M NH4 OH was added to raise the pH to 8.5, and the preparation was dialysed against running water for 2 days at 4° C. (all other operations were at room temperature).
(§3) Sera used for the assay of digoxin were first heated with acid to reduce serum intereference. 25 μl of serum was heated to 56° C. for 10 minutes with 25 μl of 0.1 N HCl, then made alkaline by the addition of 10 μl 2 M Na2 CO3. To these heated sera were added 25 μl of Ab-latex (diluted 1:10 with GBS containing 1 mg bSA/ml) and 25 μl of conjugate-latex (diluted 1:4 with GBS containing 1 mg human transferrin/ml). They were then incubated in vertically-positioned tubes agitated horizontally on a shaking incubator for 15 minutes at room temperature. At the end of this time, the tube contents were diluted with 5 ml GBS and after a further 20-fold dilution with GBS containing 0.01% Tween 20, passed through the flowcell of a Technicon Autocounter at 2 ml/min. The relative numbers of unagglutinated (monomer) latex particles in each sample were determined (as also may be the relative numbers of agglutinated particles) by selective optical counting.
Example 1 was repeated using latex particles of the same (as opposed to different) size and the following results were obtained: […]

sheep anti-digoxin serum [3] = assay: assay of digoxin by mixed agglutination of Ab-latex and conjugate-latex, selective optical counting of unagglutinated particles; details: Table 1
Description: This Example illustrates the assay of digoxin.
as §1, §2, §3
In the selective optical counting of particles, the amount of light scattered by a particle is dependent on the size of the particle; in turn, the electronic impulse generated in the photocell will be proportional to the size of the particle, and particles of different sizes may be counted separately. Table 2 illustrates the improvement in precision of determination (by providing a more extended range for the standard curve) that may be obtained by counting only unagglutinated particles (monomers) as opposed to counting all particles (total). […]

sheep anti-digoxin serum [4] = assay: latex immunoassay of digoxin read by turbidimetry (optical density at 400 nm)
sheep anti-digoxin serum [5] = assay: assay of digoxin by mixed agglutination of Ab-latex and conjugate-latex, selective optical counting of unagglutinated particles; details: Table 3
[6] = latex immunoassay of hPL, comparison of counting methods; details: 2.5 ngs hPL/ml
Description: In the selective optical counting of particles, the amount of light scattered by a particle is dependent on the size of the particle; in turn, the electronic impulse generated in the photocell will be proportional to the size of the particle, and particles of different sizes may be counted separately. Table 2 illustrates the improvement in precision of determination (by providing a more extended range for the standard curve) that may be obtained by counting only unagglutinated particles (monomers) as opposed to counting all particles (total). The Table also illustrates the great increase in sensitivity that may be realized by calculating the ratio of unagglutinated to agglutinated particles (monomer/polymer ratio). By counting particles at all, an increase in sensitivity and precision may be realized by comparison with other methods of end-point determination.

N[C@@H](Cc1cc(I)c(Oc2cc(I)c(O)c(I)c2)c(I)c1)C(=O)O [T4, thyroxine]
Particle concentration (% maximum) ([1]; 10 ng T4/ml serum): 51.5%
Particle concentration (% maximum) ([1]; 50 ng T4/ml serum): 59.5%
Particle concentration (% maximum) ([1]; 200 ng T4/ml serum): 89%

C[C@H]1O[C@@H](O[C@H]2[C@@H](O)C[C@H](O[C@H]3[C@@H](O)C[C@H](O[C@H]4CC[C@@]5(C)[C@H](CC[C@@H]6[C@@H]5C[C@@H](O)[C@]5(C)[C@@H](C7=CC(=O)OC7)CC[C@]65O)C4)O[C@@H]3C)O[C@@H]2C)C[C@H](O)[C@@H]1O [Digoxin, digoxin]
Unagglutinated Particles (as % of maximum) (sheep anti-digoxin serum [2]; Different-sized latex, digoxin 1 ng/ml in serum): 30%
Unagglutinated Particles (as % of maximum) (sheep anti-digoxin serum [2]; Different-sized latex, digoxin 4 ng/ml in serum): 76%
Unagglutinated Particles (as % of maximum) (sheep anti-digoxin serum [2]; Different-sized latex, digoxin 10 ng/ml in serum): 100%
Unagglutinated Particles (as % of maximum) (sheep anti-digoxin serum [2]; Equal-sized latex, digoxin 1 ng/ml in serum): 78%
Unagglutinated Particles (as % of maximum) (sheep anti-digoxin serum [2]; Equal-sized latex, digoxin 4 ng/ml in serum): 95%
Unagglutinated Particles (as % of maximum) (sheep anti-digoxin serum [2]; Equal-sized latex, digoxin 10 ng/ml in serum): 100%
Unagglutinated Particles (as % of maximum) (sheep anti-digoxin serum [3]; digoxin 0.31 ng/ml in serum): 40%
Unagglutinated Particles (as % of maximum) (sheep anti-digoxin serum [3]; digoxin 0.625 ng/ml in serum): 44%
Unagglutinated Particles (as % of maximum) (sheep anti-digoxin serum [3]; digoxin 1.25 ng/ml in serum): 63%
Unagglutinated Particles (as % of maximum) (sheep anti-digoxin serum [3]; digoxin 2.5 ng/ml in serum): 90%
Unagglutinated Particles (as % of maximum) (sheep anti-digoxin serum [3]; digoxin 5.0 ng/ml in serum): 100%
Turbidity (sheep anti-digoxin serum [4]; digoxin 0.31 ng/ml in serum): 74 percentage of that found in th
Turbidity (sheep anti-digoxin serum [4]; digoxin 0.625 ng/ml in serum): 71 percentage of that found in th
Turbidity (sheep anti-digoxin serum [4]; digoxin 1.25 ng/ml in serum): 82 percentage of that found in th
Turbidity (sheep anti-digoxin serum [4]; digoxin 2.5 ng/ml in serum): 100 percentage of that found in th
Turbidity (sheep anti-digoxin serum [4]; digoxin 5.0 ng/ml in serum): 100 percentage of that found in th
Particle count (monomers) (sheep anti-digoxin serum [5]; digoxin 0.31 ng/ml in serum): 40 percentage of that found in th
Particle count (monomers) (sheep anti-digoxin serum [5]; digoxin 0.625 ng/ml in serum): 44 percentage of that found in th
Particle count (monomers) (sheep anti-digoxin serum [5]; digoxin 1.25 ng/ml in serum): 63 percentage of that found in th
Particle count (monomers) (sheep anti-digoxin serum [5]; digoxin 2.5 ng/ml in serum): 90 percentage of that found in th
Particle count (monomers) (sheep anti-digoxin serum [5]; digoxin 5.0 ng/ml in serum): 100 percentage of that found in th

B1: hPL: human placental lactogen (protein, UniProt P0DML2 27-217, looked up)
Chorionic somatomammotropin …: VQTVPLSRLFDHAMLQAHRAHQLAIDTYQEFEETYIPKDQKYSFLHDSQTSFCFSDSIPTPSNMEETQQKSNLELLRISLLLIESWLEPVRFLRSMFANNLVYDTSDSDDYHLLKDLEEGIQTLMGRLEDGSRRTGQILKQTYSKFDTNSHNHDALLKNYGLLYCFRKDMDKVETFLRMVQCRSVEGSCGF
Monomer/polymer ratio [6]: 81 percentage of that obtained in
